The values below come from patent US11987646B2, “Immunomodulatory peptides” (Leidos, Inc., priority 2020, dated 2024).

For test [1], the system named is Pan02 (pancreatic adenocarcinoma) cells. The experiment in a line: Pan02 tumor model. It counts as in vivo, mice. The settings on record: intra-tumorally 2× a week, 50 μg dose, normalized to day 0, Mann-Whitney test. How it is done:
Mice were injected subcutaneously with 3×10^6 Pan02 (pancreatic adenocarcinoma) cells in the right rear flank. Tumor volumes were measured at least twice weekly in two dimensions using a caliper. When the mean tumor size reached approximately 80-120 mm^3, mice were randomized and treatment was started. FoLD04 was administered intra-tumorally 2× a week (50 μg dose). Monoclonal antibodies were administered intraperitoneally 2× a week (5 mg/kg (anti-CTLA4) and 10 mg/kg (anti-PD1) dose).
Tumor volumes were measured on day 4, 7, 11, 14, 18, 21, 25 and 27 (end of study) and normalized to day 0 values for each animal. Statistical test used: Unpaired, non-parametric, two-tailed Mann-Whitney test.
Control used: intra-tumor injection of DMSO diluted in PBS (for FoLD04 injected intra-tumorally).

Another test addresses T1, PD1 (Homo sapiens, UniProt Q15116).
T1 construct: host or cells: Jurkat cells (PD1 and SHP1 EFC fusions), co-cultured with PDL1-presenting U2OS cells
The experiment in a line: PATHHUNTER checkpoint signaling assay (PD1 activation / SHP1 recruitment). The settings on record: Jurkat cells expressing PD1 and SHP1 co-incubated with PDL1-presenting U2OS cells, 2 h RT; peptides at 20 μM and 100 μM, in duplicate; FIG. 1. It counts as cell-based. How it is done:
Peptides were tested for their ability to inhibit the binding of PDL1 to PD1 using PATHHUNTER® checkpoint signaling assays (DiscoverX).
Jurkat cells expressing PD1 and SHP1 proteins, each fused to a fragment of enzyme fragment complementation (EFC) system, were co-incubated with PDL1-presenting U2OS cells. […] Inhibitory peptides or antibodies added to the culture would reduce the light signal.
Cells in co-culture were incubated at room temperature (RT) for 2 h (PD1 assay). The assay signal was generated using the PATHHUNTER® Bioassay Detection kit. FoLD01 (SEQ ID NO:1), LD10 (SEQ ID NO:5), and LD12 (SEQ ID NO:6) peptides were tested in duplicate at two concentrations, 20 μM and 100 μM. Peptides were dissolved in water or DMSO and diluted in assay buffer.
Microplates were read following signal generation using a PerkinElmer ENVISION™ instrument for chemiluminescent signal detection. The percentage of inhibition efficacy was calculated using the following formula, in which “RLU” means relative light units: […]

Test [2] deals with IFNγ-secreting antigen-specific CD8+ T cells. The experiment in a line: AdPyCS mouse model, IFNγ ELISPOT of spleen cells. In kind it is in vivo. The following applies: mice immunized i.m. with AdPyCSP, peptide subcutaneously 1 μg, 10 μg; spleens ten days post-injection; relative to AdPyCS-only; one-way ANOVA; FIG. 2. How it is done: Groups of five mice were immunized intramuscularly with a recombinant replication defective adenovirus expressing the Plasmodium yoelli circumsporozoite protein (AdPyCSP) and then treated subcutaneously with peptides LD10da ([…], in which the first amino acid is a D-amino acid, 1 μg), FoLD01 (1 μg, 10 μg), or an anti-PD1 monoclonal antibody (10 μg). Ten days post-injection, mice were euthanized and individual spleens removed. The number of IFNγ-secreting antigen-specific CD8+ T cells were determined using an ELISPOT assay (FIG. 2).

Test [3] concerns MC38 (colon carcinoma) cells. The experiment in a line: MC38 tumor model. The following applies: intra-tumorally 2× a week, 50 μg dose, normalized to day 0, Mann-Whitney test, P value 0.0499. It counts as in vivo, mice. The protocol: Mice were injected subcutaneously with 1×10^6 MC38 (colon carcinoma) cells and tumor volumes were measured on day 2, 5, 9, 12, and 16 (end of study) and normalized to day 0 values for each animal. When the mean tumor size reached approximately 80-120 mm^3, mice were randomized and treatment was started. Peptides were tested in an MC38 tumor model. FoLD01 peptide was administered intra-tumorally 2× a week (50 μg dose). Monoclonal antibodies were administered intraperitoneally 2× a week (5 mg/kg (anti-CTLA4) and 10 mg/kg (anti-PD1) dose). Statistical test used: Unpaired, non-parametric, two-tailed Mann-Whitney test. Control used: intra-tumor injection of DMSO diluted in PBS (for FoLD01 injected intra-tumorally).

T1 sequence (Q15116 25-288): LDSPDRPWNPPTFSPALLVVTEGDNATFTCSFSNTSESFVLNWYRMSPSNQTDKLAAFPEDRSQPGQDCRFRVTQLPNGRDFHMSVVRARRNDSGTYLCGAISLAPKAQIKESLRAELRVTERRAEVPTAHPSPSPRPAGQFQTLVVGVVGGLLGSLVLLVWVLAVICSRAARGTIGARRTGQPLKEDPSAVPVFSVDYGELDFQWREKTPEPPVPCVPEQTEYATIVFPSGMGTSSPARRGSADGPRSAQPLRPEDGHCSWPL

Regarding “FoLD04: peptide, amino acid sequence QVSALRVNILF (SEQ ID NO:4) (listed as Fusarium oxysporum)”, in test [1], the “tumor volume relative to DMSO/PBS IT control” value is recorded as “significantly decreased tumor volume”.
On to “FoLD01: peptide, amino acid sequence STNQVSALRVNILFPLSQ (SEQ ID NO:1) (FoLD01 peptide)”, for which the “inhibition of PD1-PDL1 interaction (percentage of inhibition efficacy)” value in the test with PD1 was “inhibited PD1-PDL1 interaction to a greater extent than peptides LD10 and LD12”. Moreover, in test [2], the “number of IFNγ-secreting antigen-specific CD8+ T cells” value is listed as “enhances the number of antigen-specific CD8+ T cells relative to stimulation with antigen only”. Besides, the “tumor volume relative to intra-tumoral DMSO/PBS control” value in test [3] is on record as “significantly decreased tumor volume”.
